The target of this experiment is Rho-associated protein kinase 2 (Homo sapiens, UniProt O75116). Kind of experiment: Kinase Inhibition.

Usually IC50 stands for the concentration at which inhibition is half-maximal. Higher therefore signals weaker potency.

Chain of Rho-associated protein kinase 2 (O75116 whole entry): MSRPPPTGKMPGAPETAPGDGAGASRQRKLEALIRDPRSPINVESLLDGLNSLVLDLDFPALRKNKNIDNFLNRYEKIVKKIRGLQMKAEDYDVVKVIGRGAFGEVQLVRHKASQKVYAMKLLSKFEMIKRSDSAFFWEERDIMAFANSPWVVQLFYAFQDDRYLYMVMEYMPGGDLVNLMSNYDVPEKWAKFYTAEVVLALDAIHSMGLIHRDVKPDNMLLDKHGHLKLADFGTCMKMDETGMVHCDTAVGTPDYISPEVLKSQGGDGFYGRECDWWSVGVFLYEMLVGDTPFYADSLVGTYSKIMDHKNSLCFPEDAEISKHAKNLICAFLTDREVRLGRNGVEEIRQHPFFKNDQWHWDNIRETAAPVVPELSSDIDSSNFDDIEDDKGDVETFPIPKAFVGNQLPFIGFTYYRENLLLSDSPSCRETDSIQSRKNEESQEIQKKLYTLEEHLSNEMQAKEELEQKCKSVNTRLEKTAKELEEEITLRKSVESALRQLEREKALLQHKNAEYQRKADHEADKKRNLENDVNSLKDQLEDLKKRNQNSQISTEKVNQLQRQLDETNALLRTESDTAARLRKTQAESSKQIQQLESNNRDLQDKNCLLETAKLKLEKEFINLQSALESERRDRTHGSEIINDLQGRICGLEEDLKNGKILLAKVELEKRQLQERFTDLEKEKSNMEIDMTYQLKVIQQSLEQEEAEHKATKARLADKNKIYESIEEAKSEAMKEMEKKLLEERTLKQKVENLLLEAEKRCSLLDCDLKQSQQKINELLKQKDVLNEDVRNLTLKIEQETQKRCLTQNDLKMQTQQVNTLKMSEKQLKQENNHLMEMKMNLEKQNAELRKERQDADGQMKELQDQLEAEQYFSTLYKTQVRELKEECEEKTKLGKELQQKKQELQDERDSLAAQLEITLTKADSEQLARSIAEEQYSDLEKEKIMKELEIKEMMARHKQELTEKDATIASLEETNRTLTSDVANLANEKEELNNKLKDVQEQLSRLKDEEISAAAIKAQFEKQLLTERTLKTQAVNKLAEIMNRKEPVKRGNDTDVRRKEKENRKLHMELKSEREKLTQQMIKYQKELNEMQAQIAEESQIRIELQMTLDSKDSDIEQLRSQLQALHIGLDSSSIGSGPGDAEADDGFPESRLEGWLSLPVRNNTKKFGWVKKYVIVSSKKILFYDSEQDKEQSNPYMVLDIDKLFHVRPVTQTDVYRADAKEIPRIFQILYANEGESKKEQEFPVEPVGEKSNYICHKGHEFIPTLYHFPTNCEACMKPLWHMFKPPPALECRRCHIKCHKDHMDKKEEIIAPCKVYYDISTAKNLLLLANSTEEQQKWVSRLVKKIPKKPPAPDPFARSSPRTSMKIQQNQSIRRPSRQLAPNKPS

The compound `CCOc1ccc(NC(=O)c2cccc([C@@H](CO)NC(=O)c3ccc(-c4ccncc4)cc3)c2)cn1` [US11555039, Compound ID 93] displayed an IC50 of 0.51 nM.

The values above are taken from BindingDB's records for patent US11555039 (Translational Drug Development, 2023).
